Experiments:
[1] = biological target: T1, hen egg white lysozyme (Gallus gallus, UniProt P00698); test: Lyophilization stability activity assay (10 lyophilization cycles, EnzChek lysozyme activity); type: biochemical
T1 construct: reconstituting hen egg white lysozyme (0.1 mg/mL, DPBS, pH 7.4) as received without further purification; purchased Sigma-Aldrich; host or cells: hen egg white
Procedure: (§1) Lysozyme-glycopolymer conjugate (Lyz-6). To a 1.5 mL Lo-Bind® centrifuge tube was added thiopropionyl hen egg white lysozyme (LyzSH) (70 μL, 10 mg/mL, DPBS, pH 8.0) and 6 (16 mg, 0.71 μmol, 15 eq) and the entire reaction was diluted to a final volume of 500 μL (DPBS, pH 8.0) before storage at 4° C. for 3 hours. The resulting mixture was purified by FPLC (50 mM PB, 150 mM NaCl, pH 7.4), fractions were concentrated by centriprep ultrafiltration (MWCO 3 kDa, DPBS, pH 7.4) and stored at 4° C. Samples were diluted 5 fold before the EnzChek® lysozyme activity assay was employed to measure fraction activity. In a typical assay 50 μL of diluted sample was incubated with 50 μL of Micrococcus luteus labeled with FITC (1 mg/mL) at 37° C. for 1 hour. Subsequently, fluorescence of lysed cell membrane and thus lysozyme activity was measured as FITC fluorescence (abs 480 nm/em 530 nm) and quantified relative to known standards.
Wild-type lysozyme was prepared by reconstituting hen egg white lysozyme (0.1 mg/mL, 1 eq, DPBS, pH 7.4) as received without further purification. Samples were further diluted to 0.021 mg/mL (1 kU/mL) in 20 μL aliquots prior to application of lyophilization or thermal insults.
Wild-type lysozyme samples mixed with glyco-polymer were prepared by adding trehalose polymer (Poly 5-8, 1 or 100 eq relative to lysozyme) to a solution of lysozyme (0.1 mg/mL, DPBS, pH 7.4) before storage at 4° C. Samples were further diluted to a lysozyme concentration of 0.021 mg/mL (1 kU/mL) in 20 μL aliquots prior to application of lyophilization or thermal insult.
Wild-type lysozyme samples mixed with trehalose were prepared by adding trehalose (1 or 100 eq relative to the number of trehalose monomer units in Poly 5-8) to a solution of lysozyme (0.1 mg/mL, DPBS, pH 7.4) before storage at 4° C. […]
(§2) Wild-type lysozyme was prepared by reconstituting hen egg white lysozyme (0.1 mg/mL, DPBS, pH 7.4) as received without further purification. […] Statistics were calculated utilizing the Students t test; % confidence as +/−=t*(standard deviation)/(number of trials)^(½) with p<1−% confidence/100.

[2] = biological target: T1, hen egg white lysozyme; test: Thermo-stability (heat burden) assay, 90° C., EnzChek lysozyme activity; type: biochemical
Procedure: as §1, with “standards. […]” for “standards.”
as §2, with “received and was stored” for “received”, “purification at 4° C. in 20 μL aliquots. […] Activities of stressed samples were measured relative to identical aliquots that were not exposed to heat.” for “purification.”

[3] = tested on: horseradish peroxidase (HRP); test: Horseradish peroxidase stabilization at 70° C. (TMB activity); type: biochemical; details: 70° C. for 30 min; HRP 75 μg/mL; 7500 equivalent of trehalose
Procedure: The activity of horseradish peroxidase (HRP) after exposure to a temperature of 70° C. for 30 minutes was tested, and the results are provided in FIG. 28. The activity of HRP was tested through reaction with 3,3′,5,5′-tetramethylbenzidine (TMB), which produces a blue by-product. HRP samples were prepared without any additive, with 100 equivalent of P1-P4, or 7500 equivalent of trehalose, which is equal to the trehalose in the P1 sample. Heated samples were then tested for HRP reactivity and the percent original activities were calculated using same concentration of HRP without heating and additive (FIG. 28). After heating, HRP in solution without any additive, only 46% of the original activity was observed. […] The same concentration of trehalose maintained only 80% of HRP activity. All samples were repeated six times and their p value compared with no additive were <0.001.
Horseradish Peroxidase Stabilized by P1-P4 at 70° C. […] Stock solutions of 100 equiv of P1, P2, P3 and P4 and 7500 equiv of trehalose were also prepared in the same buffer. 2 μL aliquots of HRP solution were mixed with 2 μL aliquots of each polymer and trehalose solution to give final concentration of 75 μg/mL HRP or with only buffer. […] The assay was repeated 6 times following the know procedure with tetramethylbenzemidine (TMB).

[4] = biological target: glucose oxidase (GOX) (Aspergillus niger, UniProt P13006); test: Glucose oxidase stabilization at 50° C. (Amplex Red assay); type: biochemical; details: 50° C. for 30 min; GOX 0.1 mg/mL; 7500 equivalent of trehalose
Sequence of glucose oxidase (GOX) (P13006 17-605, species assumed): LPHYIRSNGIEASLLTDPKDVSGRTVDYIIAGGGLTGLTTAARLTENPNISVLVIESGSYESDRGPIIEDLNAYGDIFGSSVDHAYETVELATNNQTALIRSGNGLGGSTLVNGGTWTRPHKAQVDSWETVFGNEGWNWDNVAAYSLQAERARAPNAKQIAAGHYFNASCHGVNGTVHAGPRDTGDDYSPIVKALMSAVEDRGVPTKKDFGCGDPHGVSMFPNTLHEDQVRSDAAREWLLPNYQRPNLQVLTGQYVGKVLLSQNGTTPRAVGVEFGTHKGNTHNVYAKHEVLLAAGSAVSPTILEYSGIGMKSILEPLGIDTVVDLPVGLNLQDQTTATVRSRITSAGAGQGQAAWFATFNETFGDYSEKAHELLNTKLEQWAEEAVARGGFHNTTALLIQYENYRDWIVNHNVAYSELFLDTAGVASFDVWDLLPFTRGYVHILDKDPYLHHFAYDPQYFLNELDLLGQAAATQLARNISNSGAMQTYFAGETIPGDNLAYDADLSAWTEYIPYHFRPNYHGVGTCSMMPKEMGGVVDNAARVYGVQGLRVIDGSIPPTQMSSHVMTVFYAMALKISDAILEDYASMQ
Procedure: Trehalose glycopolymers P1 through P4 were also tested for glucose oxidase (GOX) stabilization against 50° C. heat for 30 min. The activity of GOX was evaluated using Amplex® Red Glucose/Glucose Oxidase Assay Kit (Invitrogen). GOX reacts with D-glucose to form H2O2, which can then react with the Amplex® in the presence of horseradish peroxidase (HRP) to generate resorufin and can be detected by fluorescence. GOX samples were prepared without any additive, with 100 equivalent of P1-P4, and 7500 equivalent of trehalose, which is equal to the number of repeating units in the P1. All samples were heated to 50° C. for 30 min and repeated six times. Heated samples were then tested for GOX reactivity and percent original activities were calculated using same concentration of GOX without heating and additive (FIG. 29).
2 μL aliquots of GOX solution were mixed with 2 μL aliquots of each polymer and trehalose solution or buffer only to give the final concentration of 0.1 mg/mL GOX. […] Activity was measured using Amplex® Red Glucose/Glucose Oxidase Assay kit following the product manual procedures.

[5] = biological target: Recombinant Human Insulin (Homo sapiens, UniProt P01308); test: Insulin stabilization at 90° C. (native gel); details: 90° C. for 1 h; insulin 1 mg/mL; 750 equiv of trehalose
Sequence of Recombinant Human Insulin (P01308 25-54 limits assumed): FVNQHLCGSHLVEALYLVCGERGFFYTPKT
Sequence of Recombinant Human Insulin (P01308 90-110 limits assumed): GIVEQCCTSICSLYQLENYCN
Procedure: Prepared P1, P2, P3, and the same concentration of trehalose as an additive were tested for stabilization of insulin against heating under 90° C. for 1 h. After heating all the samples were loaded on the native gel (FIG. 30). Insulin without any additive was denatured and the band was almost gone in native gel. […] The MALDI-TOF data provides that insulin, originally 5.8 kDa, denatures into mainly two fragments after heating (data not shown). This is due to the breakage of two disulfide bridges liking a and β chain of insulin.
Insulin was dissolved in pH 7.4 D-PBS buffer (1 mg/mL). The samples were prepared by adding 10 equiv of P1, P2, and P3 or 750 equiv of trehalose into the insulin solution. […] Other samples with polymers or trehalose were heated as 90° C. for 1 h and ran through the native gel.

[6] = tested on: β-galactosidase (β-Gal); details: lyophilization cycles; β-Gal 0.1 mg/mL; 7500 equiv of trehalose

T1 sequence (P00698 19-147): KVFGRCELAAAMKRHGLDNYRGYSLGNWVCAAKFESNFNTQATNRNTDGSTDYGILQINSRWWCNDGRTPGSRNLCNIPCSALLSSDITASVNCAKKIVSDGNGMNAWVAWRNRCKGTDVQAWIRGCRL

activity relative to unexposed sample stored at 4° C. ([1]; 0.1 mg/mL, DPBS pH 7.4, conjugate or protein alone, no additive) [%] | retention of original activity ([1]; lysozyme 0.021 mg/mL (1 kU/mL), conjugate or protein alone) [%] | Compound | retention of lysozyme activity with added trehalose ([1]; trehalose at equivalent concentrations to that in the 100-fold polymers) | activity retention with added trehalose ([2]; 90° C. for 1 hour, highest trehalose concentration (100 eq Poly8 monomer units)) [%] | percent original HRP activity [3] [%] | percent original GOX activity [4] [%] | insulin band on native gel after heating [5] | β-Gal original activity maintained [6] [%] | remaining activity after heat burden ([2]; 90° C. for 3 hours, 0.1 mg/mL, conjugate or protein alone)
 |  | OC[C@H]1O[C@H](O[C@H]2O[C@H](CO)[C@@H](O)[C@H](O)[C@H]2O)[C@H](O)[C@@H](O)[C@@H]1O [trehalose] | 18-31% | 31 | 80 | 72 | greatly reduced | 45 | 
~20 | 16 | wild-type lysozyme: hen egg white lysozyme reconstituted as received, unmodified |  |  |  |  |  |  | no activity remained

— US9901648B2, “Stabilization of biomolecules using sugar polymers” (THE REGENTS OF THE UNIVERSITY OF CALIFORNIA, priority 2012, dated 2018)
